biological target: SARS-CoV-2 Papain-Like Protease (PLpro) (Severe acute respiratory syndrome coronavirus 2 (2019-nCoV) (SARS-CoV-2), UniProt P0DTD1); assay: biochemical; conditions: PLpro enzymatic fluorescence assay; class symbols; read-out: PLpro IC50

**Q.** For `COc1cc(C2(NC(=O)c3cc(OC[C@H]4C[C@H](F)CN4C)ccc3C)CC2)c2cccnc2c1` [Compound 557, 5-(((2R,4S)-4-Fluoro-1-methylpyrrolidin-2-yl)methoxy)-N-(1-(7-methoxyquinolin-5-yl)cyclopropyl)-2-methylbenzamide], which IC50 is on record?
**A.** Its IC50 is under 0.1 µM.

**Q.** Which IC50 does the source give for `[2H]C1([2H])C([2H])([2H])C1(NC(=O)c1cc(OC[C@@H]2CCN2C)ccc1C)c1cc(OC)cc2nc(C)ccc12` [Compound 804, (S)—N-(1-(7-Methoxy-2-methylquinolin-5-yl)cyclopropyl-2,2,3,3-d)-2-methyl-5-((1-methylazetidin-2-yl)methoxy)benzamide] here?
**A.** Its IC50 is under 0.1 µM.

**Q.** For `COc1cc(C2(NC(=O)c3cc(OCCN(C)CCF)ccc3C)CC2)c2cccnc2c1` [Compound 571, 5-(2-((2-Fluoroethyl)(methyl)amino)ethoxy)-N-(1-(7-methoxyquinolin-5-yl)cyclopropyl)-2-methylbenzamide], which IC50 is on record?
**A.** Its IC50 is under 0.1 µM.

same assay, conditions: SARS-CoV-2 PLpro enzymatic fluorescence assay; read-out: PLpro IC50

**Q.** How did the IC50 turn out when `Cc1ccc(OC2CCCCN(C)C2)cc1C(=O)NC1(c2cccc3ccccc23)CC1` (stereo not drawn) [Compound 293, 2-methyl-5-((1-methylazepan-3-yl)oxy)-N-(1-(naphthalen-1-yl)cyclopropyl)benzamide] was run?
**A.** The IC50 was 0.1 to 1 µM.

**Q.** For `Cc1ccc(OCCN(C)C)cc1C(=O)NC1(c2cccc(C)c2Br)CC1` [Compound 317, N-(1-(2-Bromo-3-methylphenyl)cyclopropyl)-5-(2-(dimethylamino)ethoxy)-2-methylbenzamide], which IC50 is on record?
**A.** The IC50 was 0.1 to 1 µM.

**Q.** How did the IC50 turn out when `CNCCOc1ccc(C)c(C(=O)NC2(c3cccc4ccccc34)CN(C)C2)c1` [Compound 499, 2-Methyl-N-(1-methyl-3-(naphthalen-1-yl)azetidin-3-yl)-5-(2-(methylamino)ethoxy)benzamide] was run?
**A.** The IC50 was over 5 µM.

**Q.** Which IC50 does the source give for `Cc1ccc(OCCN(C)C)cc1C(=O)NC1(c2ccccc2-c2ccccc2)CC1` [Compound 267, N-(1-([1,1′-Biphenyl]-2-yl)cyclopropyl)-5-(2-(dimethylamino)ethoxy)-2-methylbenzamide] here?
**A.** Its IC50 is over 5 µM.

**Q.** With `Cc1cc(C#Cc2ccccc2)c(N)cc1C(=O)NC1(c2cccc3ccccc23)CC1` [Compound 217, 5-Amino-2-methyl-N-(1-(naphthalen-1-yl)cyclopropyl)-4-(phenylethynyl)benzamide] as the molecule, how does the IC50 read?
**A.** Its IC50 is over 5 µM.

**Q.** Which IC50 does the source give for `Cc1ccc(OCC2CCN2Cc2ccccc2)cc1C(=O)NC1(c2cccc3ccccc23)CC1` (stereo not drawn) [Compound 330, 5-((1-Benzylazetidin-2-yl)methoxy)-2-methyl-N-(1-(naphthalen-1-yl)cyclopropyl)benzamide] here?
**A.** Its IC50 is under 0.1 µM.

**Q.** How did the IC50 turn out when `Cc1cc2c(cc1C(=O)N[C@H](C)c1cccc3ccccc13)OCO2` [Compound 145, (R)-6-Methyl-N-(1-(naphthalen-1-yl)ethyl)benzo[d][1,3]dioxole-5-carboxamide] was run?
**A.** Its IC50 is 1 to 5 µM.

**Q.** How did the IC50 turn out when `Cc1ccc(OCCN(C)C)cc1C(=O)NC1(c2ccc(OCc3ccccc3)cc2)CC1` [Compound 307, N-(1-(4-(Benzyloxy)phenyl)cyclopropyl)-5-(2-(dimethylamino)ethoxy)-2-methylbenzamide] was run?
**A.** The IC50 was over 5 µM.

**Q.** `Cc1cc2ccn(C3CCC3)c2cc1C(=O)NC1(c2cccc3ccccc23)CC1` [Compound 296, 1-Cyclobutyl-5-methyl-N-(1-(naphthalen-1-yl)cyclopropyl)-1H-indole-6-carboxamide] was tested. Which IC50 did it give?
**A.** The IC50 was 0.1 to 1 µM.

**Q.** For `Cc1ccc(OC[C@H]2C[C@H](F)CN2C)cc1C(=O)NC1(c2cccc3ccccc23)CC1` (single isomer, unassigned) [Compound 441], which IC50 is on record?
**A.** The IC50 was under 0.1 µM.

**Q.** For `Cc1ccc(OCCNC(=O)OC(C)(C)C)cc1C(=O)N[C@H](C)c1cccc2ccccc12` [Compound 158, (R)-tert-Butyl(2-(4-methyl-3-((1-(naphthalen-1-yl)ethyl)carbamoyl)phenoxy)ethyl)carbamate], which IC50 is on record?
**A.** Its IC50 is 1 to 5 µM.

**Q.** With `Cc1ccc(C2CCNC2)cc1C(=O)NC1(c2cccc3ccccc23)CC1` (stereo not drawn) [Compound 413, 2-Methyl-N-(1-(naphthalen-1-yl)cyclopropyl)-5-(pyrrolidin-3-yl)benzamide] as the molecule, how does the IC50 read?
**A.** The IC50 was under 0.1 µM.

From US20250025443A1, “COMPOUNDS AND METHODS FOR TREATING CORONA VIRUSES” (CLEAR CREEK BIO, INC., priority 2021, published 2025)
